IC50 data for nine molecules are collected here from US20170209445A1, “KINASE INHIBITORS” (Respivert Limited, priority 2014, published 2017).

Broadly, the IC50 is the concentration that gives 50% inhibition.

The test system of the experiment is PBMCs. Kind of experiment: LPS-induced IL-8 release in PBMC cells. Format: cell-based. The following applies: Homo sapiens, LPS-stimulated PBMCs, read-out: IC50 Values for Inhibition of Cytokine Release PBMCs IL-8. The protocol: Peripheral blood mononuclear cells (PBMCs) from healthy subjects are separated from whole blood using a density gradient (Lymphoprep, Axis-Shield Healthcare). The PBMCs are seeded in 96 well plates and treated with compounds at the desired concentration for 2 hours before addition of 1 ng/mL LPS (Escherichia Coli 0111:B4 from Sigma Aldrich) for 24 hours under normal tissue culture conditions (37° C., 5% CO2). The supernatant is harvested for determination of IL-8 and TNFα concentrations by sandwich ELISA (Duo-set, R&D systems) and read on the fluorescence microplate reader (Varioskan® Flash, ThermoFisher Scientific).

As to `C#Cc1cc(Nc2ncc3cc(-c4cc(C(=O)Nc5cc(C(C)(C)C)cc(NS(C)(=O)=O)c5OC)ccc4C)ccc3n2)cc(OCCOCCOCCOC)c1` [14(k), N-(5-(tert-Butyl)-2-methoxy-3-(methylsulfonamido)phenyl)-3-(2-((3-ethynyl-5-(2-(2-(2-methoxyethoxy)ethoxy)ethoxy)phenyl)amino)quinazolin-6-yl)-4-methylbenzamide], the IC50 turned out to be 16.7 nM.
Turning to `COCCOCCOCCOc1cc(F)cc(Nc2ncc3cc(-c4cc(C(=O)Nc5cc(C(C)(C)C)cc(NS(C)(=O)=O)c5OC)ccc4C)ccc3n2)c1` [14(l), N-(5-(tert-Butyl)-2-methoxy-3-(methylsulfonamido)phenyl)-3-(2-((3-fluoro-5-(2-(2-(2-methoxyethoxy)ethoxy)ethoxy)phenyl)amino)quinazolin-6-yl)-4-methylbenzamide], the IC50 worked out at 16.6 nM.
Take `C#Cc1cc(Nc2ncc3cc(-c4cc(C(=O)Nc5cc(C(C)(C)C)cc(NS(C)(=O)=O)c5OC)ccc4C)ccc3n2)cc(C(=O)NCCOCCOC)c1` [14(m), N-(5-(tert-Butyl)-2-methoxy-3-(methylsulfonamido)phenyl)-3-(2-((3-ethynyl-5-((2-(2-methoxyethoxy)ethyl)carbamoyl)phenyl)amino)quinazolin-6-yl)-4-methylbenzamide]: the IC50 was 10.4 nM.
As to `C#Cc1cc(Nc2ncc3cc(-c4cc(C(=O)Nc5cc(C(C)(C)C)cc(NS(C)(=O)=O)c5OC)ccc4C)ccc3n2)cc(C(=O)NCCOC)c1` [14(n), N-(5-(tert-Butyl)-2-methoxy-3-(methylsulfonamido)phenyl)-3-(2-((3-ethynyl-5-((2-methoxyethyl)carbamoyl)phenyl)amino)quinazolin-6-yl)-4-methylbenzamide], the IC50 was found to be 11 nM.
As to `COc1cc(Nc2ncc3cc(-c4cc(C(=O)Nc5cc(C(C)(C)C)cc(NS(C)(=O)=O)c5OC)ccc4C)ccc3n2)cc(C(=O)O)c1` [14(o), 3-((6-(5-((5-(tert-Butyl)-2-methoxy-3-(methylsulfonamido)phenyl)carbamoyl)-2-methylphenyl)quinazolin-2-yl)amino)-5-methoxybenzoic acid], the IC50 came to 28.4 nM.
For `COCCOCCOCCNC(=O)c1ccc(Nc2ncc3cc(-c4cc(C(=O)Nc5cc(C(C)(C)C)cc(NS(C)(=O)=O)c5OC)ccc4C)ccc3n2)cc1OC` [14(p), 4-((6-(5-((5-(tert-Butyl)-2-methoxy-3-(methylsulfonamido)phenyl)carbamoyl)-2-methylphenyl)quinazolin-2-yl)amino)-2-methoxy-N-(2-(2-(2-methoxyethoxy)ethoxy)ethyl)benzamide], the IC50 was 7.5 nM.
On to `COc1c(NC(=O)c2ccc(C)c(-c3ccc4nc(Nc5cccc(N=S(C)(C)=O)c5)ncc4c3)c2)cc(C(C)(C)C)cc1NS(C)(=O)=O` [14(q), N-(5-(tert-Butyl)-2-methoxy-3-(methylsulfonamido)phenyl)-3-(2-((3-((dimethyl(oxo)-I6-sulfanylidene)amino)phenyl)amino)quinazolin-6-yl)-4-methylbenzamide], for which the IC50 stood at 6.1 nM.
`COCCOCCOCCOc1cc(Nc2ncc3cc(-c4cc(C(=O)Nc5cc(C(C)(C)C)cc(NS(C)(=O)=O)c5OC)ccc4C)ccc3n2)cc(OC(F)(F)F)c1` [14(r), N-(5-(tert-Butyl)-2-methoxy-3-(methylsulfonamido)phenyl)-3-(2-((3-(2-(2-(2-methoxy-ethoxy)ethoxy)ethoxy)-5-(trifluoromethoxy)phenyl)amino)quinazolin-6-yl)-4-methylbenzamide]: the IC50 was 49.1 nM.
Then `COCCOCCOCCOc1cc(Nc2ncc3cc(-c4cc(C(=O)Nc5cc(C(C)(C)C)cc(NS(C)(=O)=O)c5OC)ccc4C)ccc3n2)cc(C(F)(F)F)c1` [14(s), N-(5-(tert-Butyl)-2-methoxy-3-(methylsulfonamido)phenyl)-3-(2-((3-(2-(2-(2-methoxyethoxy)ethoxy)ethoxy)-5-(trifluoromethyl)phenyl)amino)quinazolin-6-yl)-4-methylbenzamide], with 35.6 nM.
